Consider 2 compounds from patent publication US11730712B2, “Functionalized long-chain hydrocarbon mono- and di-carboxylic acids and derivatives thereof, and their use for the prevention or treatment of disease” (ESPERVITA THERAPEUTICS, INC., priority 2021, dated 2023).

Assay [1] has as its system C57BL6J mice on high fat high fructose diet. The assay can be described thus: Hepatic de novo lipogenesis (14C-glucose incorporation) in murine model of NASH. The assay is classed as in vivo, mouse. The conditions noted are these: for inhibition at 10 mg/kg / inhibition at 30 mg/kg / inhibition at 60 mg/kg: Mus musculus. The procedure: Experimental Protocol. FIG. 17A describes the study protocol. Mice were dosed daily for 7 days with a single dose of either Compound I-32 or Compound I-1 at a dose of 10 mg/kg, 30 mg/kg or 60 mg/kg. On the 8th day of the experiment mice receive final dose of Compound I-32 or Compound I-1, followed one hour later by an I.P. bolus of 14-C Glucose.
C57BL6J (8 weeks of age) were obtained for the Jackson Laboratory and fed a normal chow diet upon arrival. At ˜10 weeks of age, mice were given a diet containing high fat and high fructose (Rodent Diet with 40 kcal % Fat (Mostly Palm Oil), 20 kcal % fructose, and 0.02% cholesterol, obtained from Research Diets, Product Code: D19101102) and housed at thermoneutral conditions (26-29° C.). […] On the morning of day 8, animals received a final dose and after 1 hour […] (PerkinElmer) was administered at a concentration of 12 μCi per mouse in a volume of 0.1 ml in 0.9% saline I.P. One hour after ^14C-glucose was given, animals were anesthetized by I.P. injection of Ketamine/Xylazine (150 mg/12.4 mg/kg, respectively). Blood was drawn through cardiac puncture; the liver was removed, and a sample was from the left lobe and frozen in liquid nitrogen. Liver tissue was chipped on dry-ice and the weight of the chip weight recorded (30-50 mg of tissue). Liver tissue was homogenized in 1 ml of 2:1 chloroform:methanol using a bead homogenizer at 5000 rpm for 2×12 seconds. Samples were incubated with gentle shaking at 4° C. for 2 hours, vortexed for 2×12 seconds, and then centrifuge at 7000 rpm for 10 minutes at 4° C. The supernatant was transferred to a 1.5 ml Eppendorf and 200 μl of 0.9% saline was added. Samples were vortexed for 2×12 seconds and centrifuged at 3000 rpm for 10 minutes at 4° C. 200 μl of the lower organic phase was removed and added to 5 ml of scintillation fluid. The amount radioactivity in the sample was measured by scintillation counting. The number of disintegrations per minute (DPM) were determined over a 5-minute period and normalized to the amount of liver tissue. 5-10 μl of plasma obtained at termination was also counted and lipid/gram tissue counts were normalized to plasma counts. Statistical comparisons were carried out using a one-way ANOVA followed by Dunnett's post hoc test using GraphPad Prism 8 software. A p-value of less than or equal to 0.05 was used as the criterion of significance.

In a further assay the test system is C57BL6/J mice. The experiment in a line: Indirect calorimetry (CLAMS) in fructose-fed C57BL6 mice. The assay is classed as in vivo, mouse. The conditions noted are these: 100 mg/kg oral gavage, refed mice with RER >1. How it is done:
Materials and Methods. All experiments were carried out using the methods approved by the Animal Research Ethics Board at McMaster University, Canada (Steinberg Laboratory Animal Utilization Protocol #16-12-42). 8-Week-old male C57BL6/J mice were ordered from Jackson Laboratory, Bar Harbor, Me. and housed at the McMaster University Central Animal Facility. Animals were housed in the ventilated cages racks system and provided with ad libitum access to normal chow diet (Teklad 8640 22/5 rodent diet, procured from Envigo, Mississauga ON) and water supplemented with fructose (30% weight/volume, made fresh weekly) for at least 2-weeks before testing commenced. […] Data were analyzed using one-way analyses of variance followed by a Tukey's multiple comparisons post hoc test where appropriate. […]
Experimental and Results. Respiratory Exchange Ratio (RER) and related metabolic parameters were measured using the Comprehensive Lab Animal Monitoring System (CLAMS, Columbus Instruments, Columbus, Ohio). […] RER was monitored and those animals with RER values >1 were administered either vehicle (1.5% Carboxymethyl cellulose and 0.2% Tween 20) alone or vehicle containing Compound I-1 or Compound I-32 at a dose of 100 mg/kg via oral gavage. Animals remained in the metabolic cages and RER, activity level, locomotor activity, and food intake were monitored for 24 hours. […]

[2] abbreviates: 10 mg/kg, read-out: % change from vehicle control, hepatic de novo lipogenesis (inhibition).
The mark [3] stands for this setting: 30 mg/kg, read-out: % change from vehicle control, hepatic de novo lipogenesis (inhibition).
The mark [4] stands for this setting: 60 mg/kg, read-out: % change from vehicle control, hepatic de novo lipogenesis (inhibition).

Each structure is given as a SMILES string. Like-named read-outs stand apart in the source and are kept apart here.

One may read the inhibition as how much of the control response was suppressed. As to `CC(C)(CCCCc1ccc(CCCCC(C)(C)C(=O)O)cc1)C(=O)O` [Compound I-1, 6-[4-(5-carboxy-5-methylhexyl)-phenyl]-2,2-dimethylhexanoic acid], the entries for the “% change from vehicle control, hepatic de novo lipogenesis (inhibition)” value in assay [1] (30 mg/kg) and in assay [1] (60 mg/kg) were 55.65% and 68.96%, respectively. Moreover, the inhibition at 10 mg/kg in assay [1] (setting [2]) is 17.8%. In addition, the inhibition at 30 mg/kg in assay [1] (setting [3]) was 56%. Further, the inhibition at 60 mg/kg in assay [1] (setting [4]) was 69%. The “Respiratory Exchange Ratio (RER) compared to vehicle treated group” value in the assay on C57BL6/J mice is listed as “significant reduction in the RER”.

`CC(C)(CCCCc1cccc(CCCCC(C)(C)C(=O)O)c1)C(=O)O` [Compound I-32, 6-[3-(5-carboxy-5-methylhexyl)-phenyl]-2,2-dimethylhexanoic acid]: the “% change from vehicle control, hepatic de novo lipogenesis (inhibition)” value in assay [1] (10 mg/kg) stood at 48.79%; in assay [1] (30 mg/kg) it was 37.42%; in assay [1] (60 mg/kg), 52.90%. The inhibition at 10 mg/kg in assay [1] (10 mg/kg, 30 mg/kg and 100 mg/kg, all three doses tested (as printed in text), read-out: inhibition of liver lipogenesis) was approximately 50%; in assay [1] (setting [2]), 49%. Moreover, the inhibition at 30 mg/kg in assay [1] (setting [3]) stood at 37%. The inhibition at 60 mg/kg in assay [1] (setting [4]) came to 53%. The “Respiratory Exchange Ratio (RER) compared to vehicle treated group” value in the assay on C57BL6/J mice is “significant reduction in the RER”.
